Experimental data taken from patent US20240246964A1 (Arbutus Biopharma Corporation, priority 2021, published 2024).

Key:
[1] = target: PD-L1 His protein / PD-1 Fc protein (Homo sapiens (Human), UniProt Q9NZQ7); experiment: HTRF Assay (PD-1/PD-L1 interaction); type: binding; conditions: PD-L1 His 6 nM, PD-1 Fc 6 nM
human PD-L1 = human PD-L1 (Homo sapiens (Human), UniProt Q9NZQ7); experiment: T cell activation luciferase reporter cell culture system (T Cell Activation Assay); type: cell-based; conditions: luciferase reporter assay; PD-L1 aAPC/CHO-K1 cells with PD-1 effector Jurkat T cells
Sequence of human PD-L1 (Q9NZQ7 19-290): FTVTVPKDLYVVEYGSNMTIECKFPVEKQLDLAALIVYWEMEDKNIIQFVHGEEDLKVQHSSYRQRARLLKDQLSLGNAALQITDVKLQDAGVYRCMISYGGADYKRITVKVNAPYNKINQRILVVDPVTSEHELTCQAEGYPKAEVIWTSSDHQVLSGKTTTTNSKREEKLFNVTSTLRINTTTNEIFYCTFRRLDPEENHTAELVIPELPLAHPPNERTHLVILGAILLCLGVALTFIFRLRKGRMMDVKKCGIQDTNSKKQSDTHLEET

Sequence of PD-L1 His protein / PD-1 Fc protein (Q9NZQ7 19-238): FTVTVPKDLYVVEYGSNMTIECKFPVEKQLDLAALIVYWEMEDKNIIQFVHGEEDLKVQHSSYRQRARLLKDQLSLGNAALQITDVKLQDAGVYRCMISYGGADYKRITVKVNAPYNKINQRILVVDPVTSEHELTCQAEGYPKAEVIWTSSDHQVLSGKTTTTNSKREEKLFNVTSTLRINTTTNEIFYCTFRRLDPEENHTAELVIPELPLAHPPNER

| SMILES | IC50 [1] | EC50 (human PD-L1) |
| --- | --- | --- |
| COc1cc(-c2nccc(-c3cccc(-c4ccc(CN5CC6(CNC(=O)C6)C5)c(OC)n4)c3Cl)c2Cl)cnc1CNC1CCN(C(C)=O)CC1 [Compound 547, 2-((6-(3-(6′-(((1-acetylpiperidin-4-yl)amino)methyl)-3-chloro-5′-methoxy-[2,3′-bipyridin]-4-yl)-2-chlorophenyl)-2-methoxypyridin-3-yl)methyl)-2,6-diazaspiro[3.4]octan-7-one] | 0.35 nM | 69.2 nM |
| COc1cc(-c2nccc(-c3cccc(-c4ccc(CN5CC6(CNC(=O)C6)C5)c(OC)n4)c3Cl)c2Cl)cnc1CNC1CCOCC1 [Compound 548, 2-((6-(2-Chloro-3-(3-chloro-5′-methoxy-6′-(((tetrahydro-2H-pyran-4-yl)amino)methyl)-[2,3′-bipyridin]-4-yl)phenyl)-2-methoxypyridin-3-yl)methyl)-2,6-diazaspiro[3.4]octan-7-one] | 1.13 nM | 75.9 nM |
| COc1cc(-c2nccc(-c3cccc(-c4ccc(CN5CC6(CNC(=O)C6)C5)c(OC)n4)c3Cl)c2Cl)cnc1CNC[C@@H]1CCC(=O)N1 [Compound 550, (S)-2-((6-(2-Chloro-3-(3-chloro-5′-methoxy-6′-((((5-oxopyrrolidin-2-yl)methyl)amino)methyl)-[2,3′-bipyridin]-4-yl)phenyl)-2-methoxypyridin-3-yl)methyl)-2,6-diazaspiro[3.4]octan-7-one] | 0.28 nM | 25 nM |
| COc1cc(-c2nccc(-c3cccc(-c4ccc5c(CNC6CCN(C(C)=O)CC6)cn(C)c5n4)c3Cl)c2Cl)ccc1CNCCO [Compound 560, 1-(4-(((6-(2-Chloro-3-(3-chloro-2-(4-(((2-hydroxyethyl)amino)methyl)-3-methoxyphenyl)pyridin-4-yl)phenyl)-1-methyl-1H-pyrrolo[2,3-b]pyridin-3-yl)methyl)amino)piperidin-1-yl)ethan-1-one] | 1.66 nM | 57.3 nM |
| COc1cc(-c2nccc(-c3cccc(-c4ccc5c(CNC6CCOCC6)cn(C)c5n4)c3Cl)c2Cl)ccc1CNC1CCOCC1 [Compound 563, N-((6-(2-Chloro-3-(3-chloro-2-(3-methoxy-4-(((tetrahydro-2H-pyran-4-yl)amino)methyl)phenyl)pyridin-4-yl)phenyl)-1-methyl-1H-pyrrolo[2,3-b]pyridin-3-yl)methyl)tetrahydro-2H-pyran-4-amine] | 4.07 nM | 956 nM |
| COc1cc(-c2nccc(-c3cccc(-c4ccc5c(CNC6CCN(C(C)=O)CC6)cn(C)c5n4)c3Cl)c2Cl)ccc1CN1CC2(C1)CN(C(C)=O)C2 [Compound 564, 1-(4-(((6-(3-(2-(4-((6-Acetyl-2,6-diazaspiro[3.3]heptan-2-yl)methyl)-3-methoxyphenyl)-3-chloropyridin-4-yl)-2-chlorophenyl)-1-methyl-1H-pyrrolo[2,3-b]pyridin-3-yl)methyl)amino)piperidin-1-yl)ethan-1-one] | 1.46 nM | 260 nM |
| COc1cc(-c2cccc(-c3ccnc(-c4cnc(CNC5CCN(C(C)=O)CC5)c(OC)c4)c3Cl)c2Cl)cnc1CNC1CCN(C(C)=O)CC1 [Compound 567, 1-(4-(((5-(3-(6′-(((1-acetylpiperidin-4-yl)amino)methyl)-3-chloro-5′-methoxy-[2,3′-bipyridin]-4-yl)-2-chlorophenyl)-3-methoxypyridin-2-yl)methyl)amino)piperidin-1-yl)ethan-1-one] | 17.7 nM | ≥ 10000 nM |
| COc1cc(-c2cccc(-c3ccnc(-c4cnc(CN5CC6(CNC(=O)C6)C5)c(OC)c4)c3Cl)c2Cl)cnc1CN1CC2(CNC(=O)C2)C1 [Compound 569, 2-((3-Chloro-4-(2-chloro-3-(5-methoxy-6-((7-oxo-2,6-diazaspiro[3.4]octan-2-yl)methyl)pyridin-3-yl)phenyl)-5′-methoxy-[2,3′-bipyridin]-6′-yl)methyl)-2,6-diazaspiro[3.4]octan-7-one] | 0.62 nM | 580 nM |
| COc1cc(-c2cccc(-c3ccnc(-c4cnc(CNC5CCOCC5)c(OC)c4)c3Cl)c2Cl)cnc1CNC1CCOCC1 [Compound 570, N-((5-(2-Chloro-3-(3-chloro-5′-methoxy-6′-(((tetrahydro-2H-pyran-4-yl)amino)methyl)-[2,3′-bipyridin]-4-yl)phenyl)-3-methoxypyridin-2-yl)methyl)tetrahydro-2H-pyran-4-amine] | 18.5 nM | ≥ 10000 nM |
| COc1nc(-c2cccc(-c3nccc(-c4ccc(CNC5CCN(C(C)=O)CC5)c(OC)n4)c3Cl)c2Cl)ccc1CNC1CCN(C(C)=O)CC1 [Compound 572, 1-(4-(((6-(3-(5-(((1-Acetylpiperidin-4-yl)amino)methyl)-3′-chloro-6-methoxy-[2,4′-bipyridin]-2′-yl)-2-chlorophenyl)-2-methoxypyridin-3-yl)methyl)amino)piperidin-1-yl)ethan-1-one] | 0.19 nM | 17.4 nM |
| COc1nc(-c2cccc(-c3nccc(-c4ccc(CN5CC6(CNC(=O)C6)C5)c(OC)n4)c3Cl)c2Cl)ccc1CN1CC2(CNC(=O)C2)C1 [Compound 573, 2-((3′-Chloro-2′-(2-chloro-3-(6-methoxy-5-((7-oxo-2,6-diazaspiro[3.4]octan-2-yl)methyl)pyridin-2-yl)phenyl)-6-methoxy-[2,4′-bipyridin]-5-yl)methyl)-2,6-diazaspiro[3.4]octan-7-one] | 0.17 nM | 14.4 nM |
| COc1nc(-c2cccc(-c3nccc(-c4ccc(CNC5CCOCC5)c(OC)n4)c3Cl)c2Cl)ccc1CNC1CCOCC1 [Compound 574, N-((3′-Chloro-2′-(2-chloro-3-(6-methoxy-5-(((tetrahydro-2H-pyran-4-yl)amino)methyl)pyridin-2-yl)phenyl)-6-methoxy-[2,4′-bipyridin]-5-yl)methyl)tetrahydro-2H-pyran-4-amine] | 0.04 nM | 14 nM |
| COc1nc(-c2cccc(-c3nccc(-c4ccc(CNC[C@@H]5CCC(=O)N5)c(OC)n4)c3Cl)c2Cl)ccc1CNC[C@@H]1CCC(=O)N1 [Compound 575, (S)-5-((((3′-Chloro-2′-(2-chloro-3-(6-methoxy-5-(((((S)-5-oxopyrrolidin-2-yl)methyl)amino)methyl)pyridin-2-yl)phenyl)-6-methoxy-[2,4′-bipyridin]-5-yl)methyl)amino)methyl)pyrrolidin-2-one] | 0.11 nM | 14.1 nM |
| COc1cc(-c2nccc(-c3cccc(-c4ccc5c(CNC6CCN(C(C)=O)CC6)cn(C)c5n4)c3Cl)c2Cl)ccc1CN1CC2(CNC(=O)C2)C1 [Compound 579, 2-(4-(4-(3-(3-(((1-Acetylpiperidin-4-yl)amino)methyl)-1-methyl-1H-pyrrolo[2,3-b]pyridin-6-yl)-2-chlorophenyl)-3-chloropyridin-2-yl)-2-methoxybenzyl)-2,6-diazaspiro[3.4]octan-7-one] | 0.3 nM | 101 nM |
| COc1cc(-c2nccc(-c3cccc(-c4ccc5c(CN(C)C6CCN(C(C)=O)CC6)cn(C)c5n4)c3Cl)c2Cl)ccc1CNC1CCOCC1 [Compound 600, 1-(4-(((6-(2-Chloro-3-(3-chloro-2-(3-methoxy-4-(((tetrahydro-2H-pyran-4-yl)amino)methyl)phenyl)pyridin-4-yl)phenyl)-1-methyl-1H-pyrrolo[2,3-b]pyridin-3-yl)methyl)(methyl)amino)piperidin-1-yl)ethan-1-one] | 0.25 nM | 32.6 nM |
| COc1cc(-c2nccc(-c3cccc(-c4ccc5c(CN(C)C6CCN(C(C)=O)CC6)cn(C)c5n4)c3Cl)c2Cl)ccc1CN1CC2(C1)CN(C(C)=O)C2 [Compound 601, 1-(4-(((6-(3-(2-(4-((6-Acetyl-2,6-diazaspiro[3.3]heptan-2-yl)methyl)-3-methoxyphenyl)-3-chloropyridin-4-yl)-2-chlorophenyl)-1-methyl-1H-pyrrolo[2,3-b]pyridin-3-yl)methyl)(methyl)amino)piperidin-1-yl)ethan-1-one] | 0.23 nM | 110 nM |
| COc1cc(-c2nccc(-c3cccc(-c4ccc5c(CN(C)C6CCN(C(C)=O)CC6)cn(C)c5n4)c3Cl)c2Cl)ccc1CN1CC2(CNC(=O)C2)C1 [Compound 603, 2-(4-(4-(3-(3-(((1-Acetylpiperidin-4-yl)(methyl)amino)methyl)-1-methyl-1H-pyrrolo[2,3-b]pyridin-6-yl)-2-chlorophenyl)-3-chloropyridin-2-yl)-2-methoxybenzyl)-2,6-diazaspiro[3.4]octan-7-one] | 0.52 nM | 49.7 nM |
| COc1cc(-c2nccc(-c3cccc(-c4ccc5c(CNC6CCOCC6)cn(C)c5n4)c3Cl)c2Cl)ccc1CN1CC2(CNC(=O)C2)C1 [Compound 605, 2-(4-(3-Chloro-4-(2-chloro-3-(1-methyl-3-(((tetrahydro-2H-pyran-4-yl)amino)methyl)-1H-pyrrolo[2,3-b]pyridin-6-yl)phenyl)pyridin-2-yl)-2-methoxybenzyl)-2,6-diazaspiro[3.4]octan-7-one] | 0.34 nM | 636 nM |
| COc1cc(-c2nccc(-c3cccc(-c4ccc5c(CNC6CCOCC6)cn(C)c5n4)c3Cl)c2Cl)ccc1CNCCO [Compound 606, 2-((4-(3-Chloro-4-(2-chloro-3-(1-methyl-3-(((tetrahydro-2H-pyran-4-yl)amino)methyl)-1H-pyrrolo[2,3-b]pyridin-6-yl)phenyl)pyridin-2-yl)-2-methoxybenzyl)amino)ethan-1-ol] | 0.12 nM | 237 nM |
| COc1cc(-c2nccc(-c3cccc(-c4ccc5c(CNC6CCOCC6)cn(C)c5n4)c3Cl)c2Cl)ccc1CN1CC2(C1)CN(C(C)=O)C2 [Compound 609, 1-(6-(4-(3-Chloro-4-(2-chloro-3-(1-methyl-3-(((tetrahydro-2H-pyran-4-yl)amino)methyl)-1H-pyrrolo[2,3-b]pyridin-6-yl)phenyl)pyridin-2-yl)-2-methoxybenzyl)-2,6-diazaspiro[3.3]heptan-2-yl)ethan-1-one] | 0.22 nM | 10000 nM |
